In the kinase profiling compilation of Christmann-Franck et al. (2016):

Legend:
Assay in all cases: radiometric filter-binding kinase assay, Kinase HotSpot
Conditions in all cases: compound 0.5 µM; ATP 10 µM
[1] = biological target: FLT1 (human) (UniProt P17948)
[2] = biological target: NEK2 (human) (UniProt P51955)
[3] = biological target: JAK1 JH1 catalytic (human) (UniProt P23458)
[4] = biological target: CSNK2A2 (human) (UniProt P19784)
[5] = biological target: PKN2 (human) (UniProt Q16513)
[6] = biological target: CAMKK2 (human) (UniProt Q96RR4)
[7] = biological target: KIT (human) (UniProt P10721)
[8] = biological target: DYRK1A (human) (UniProt Q13627)
[9] = biological target: NEK1 (human) (UniProt Q96PY6)
[10] = biological target: STK17A (human) (UniProt Q9UEE5)
Sequence of STK17A (human) (Q9UEE5 whole entry, looked up): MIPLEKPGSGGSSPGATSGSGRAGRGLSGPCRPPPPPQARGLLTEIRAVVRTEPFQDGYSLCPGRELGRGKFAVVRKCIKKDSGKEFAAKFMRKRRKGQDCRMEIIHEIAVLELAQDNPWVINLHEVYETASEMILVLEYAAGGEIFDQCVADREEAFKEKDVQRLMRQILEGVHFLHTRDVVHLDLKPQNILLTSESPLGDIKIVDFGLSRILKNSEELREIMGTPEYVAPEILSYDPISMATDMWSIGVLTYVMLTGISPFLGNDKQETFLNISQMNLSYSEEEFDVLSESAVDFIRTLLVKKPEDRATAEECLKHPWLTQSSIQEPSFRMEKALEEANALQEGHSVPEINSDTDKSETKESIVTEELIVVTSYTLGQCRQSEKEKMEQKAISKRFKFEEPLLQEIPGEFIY

[11] = biological target: DCLK2 (human) (UniProt Q8N568)
[12] = biological target: RPS6KA2 KD1 KD2 (human) (UniProt Q15349)
[13] = biological target: PRKCH (human) (UniProt P24723)
Sequence of PRKCH (human) (P24723 whole entry, looked up): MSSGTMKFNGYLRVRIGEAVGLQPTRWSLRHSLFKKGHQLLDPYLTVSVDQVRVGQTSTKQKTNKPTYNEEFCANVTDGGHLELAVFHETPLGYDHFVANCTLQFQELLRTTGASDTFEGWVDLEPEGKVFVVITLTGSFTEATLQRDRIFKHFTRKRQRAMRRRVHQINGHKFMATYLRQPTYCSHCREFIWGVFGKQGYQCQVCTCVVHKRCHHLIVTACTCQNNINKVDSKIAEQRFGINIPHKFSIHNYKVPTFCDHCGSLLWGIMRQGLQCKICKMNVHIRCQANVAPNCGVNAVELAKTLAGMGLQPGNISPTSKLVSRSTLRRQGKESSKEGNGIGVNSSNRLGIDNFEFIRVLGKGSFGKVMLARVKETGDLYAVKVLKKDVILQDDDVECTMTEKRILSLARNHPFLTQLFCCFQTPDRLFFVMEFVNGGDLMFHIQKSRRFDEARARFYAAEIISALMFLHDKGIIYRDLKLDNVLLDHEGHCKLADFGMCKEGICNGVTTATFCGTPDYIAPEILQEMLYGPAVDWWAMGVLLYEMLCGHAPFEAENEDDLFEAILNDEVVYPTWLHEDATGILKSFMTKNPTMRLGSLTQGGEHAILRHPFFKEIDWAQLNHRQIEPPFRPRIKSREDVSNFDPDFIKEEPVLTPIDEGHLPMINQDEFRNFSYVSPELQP

[14] = biological target: CSNK1G3 (human) (UniProt Q9Y6M4)
[15] = biological target: PTK6 (human) (UniProt Q13882)
Sequence of PTK6 (human) (Q13882 whole entry, looked up): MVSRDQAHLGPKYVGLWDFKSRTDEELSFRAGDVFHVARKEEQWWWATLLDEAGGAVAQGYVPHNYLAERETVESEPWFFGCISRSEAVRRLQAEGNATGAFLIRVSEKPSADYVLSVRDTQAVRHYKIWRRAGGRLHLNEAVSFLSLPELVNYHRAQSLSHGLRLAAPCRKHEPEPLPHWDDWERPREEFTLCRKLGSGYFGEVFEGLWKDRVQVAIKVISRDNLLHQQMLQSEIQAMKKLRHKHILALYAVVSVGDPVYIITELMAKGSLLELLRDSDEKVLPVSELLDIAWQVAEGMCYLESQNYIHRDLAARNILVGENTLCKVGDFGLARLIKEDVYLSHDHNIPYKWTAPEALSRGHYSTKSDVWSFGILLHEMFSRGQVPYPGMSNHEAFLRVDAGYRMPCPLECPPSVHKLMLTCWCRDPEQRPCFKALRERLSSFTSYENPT

[16] = biological target: STK39 (human) (UniProt Q9UEW8)
[17] = biological target: TSSK1B (human) (UniProt Q9BXA7)
Sequence of TSSK1B (human) (Q9BXA7 whole entry, looked up): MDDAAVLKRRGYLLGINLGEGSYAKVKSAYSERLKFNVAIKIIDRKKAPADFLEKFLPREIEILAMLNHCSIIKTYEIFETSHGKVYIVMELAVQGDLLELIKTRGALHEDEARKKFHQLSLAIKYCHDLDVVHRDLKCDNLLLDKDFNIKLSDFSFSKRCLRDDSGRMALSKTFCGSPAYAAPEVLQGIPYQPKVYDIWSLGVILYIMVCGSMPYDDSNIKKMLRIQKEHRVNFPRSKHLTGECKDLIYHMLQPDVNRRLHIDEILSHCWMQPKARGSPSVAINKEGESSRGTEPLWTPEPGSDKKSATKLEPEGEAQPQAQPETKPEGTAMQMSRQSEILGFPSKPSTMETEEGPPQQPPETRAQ

[18] = biological target: MAP2K2 (human) (UniProt P36507)
[19] = biological target: KDR (human) (UniProt P35968)
[20] = biological target: RPS6KA5 KD2 (human) (UniProt O75582)
[21] = biological target: TEC (human) (UniProt P42680)
[22] = biological target: MAPKAPK2 (human) (UniProt P49137)
[23] = biological target: CLK3 (human) (UniProt P49761)
[24] = biological target: CHUK (human) (UniProt O15111)
[25] = biological target: MAPK1 (human) (UniProt P28482)
[26] = biological target: AURKC (human) (UniProt Q9UQB9)
[27] = biological target: STK25 (human) (UniProt O00506)
Sequence of STK25 (human) (O00506 whole entry, looked up): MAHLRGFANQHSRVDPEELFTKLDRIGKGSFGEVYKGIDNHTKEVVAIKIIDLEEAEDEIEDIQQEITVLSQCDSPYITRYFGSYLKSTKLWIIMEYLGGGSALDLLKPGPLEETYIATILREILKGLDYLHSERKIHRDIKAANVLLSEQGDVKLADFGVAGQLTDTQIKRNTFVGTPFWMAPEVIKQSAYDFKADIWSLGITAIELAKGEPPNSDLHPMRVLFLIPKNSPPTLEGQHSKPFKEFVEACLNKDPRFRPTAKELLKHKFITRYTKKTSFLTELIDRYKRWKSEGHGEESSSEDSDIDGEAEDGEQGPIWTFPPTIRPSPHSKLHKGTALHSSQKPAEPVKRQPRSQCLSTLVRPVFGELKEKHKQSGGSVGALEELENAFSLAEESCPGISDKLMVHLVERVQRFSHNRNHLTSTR

[28] = biological target: TGFBR1 (human) (UniProt P36897)
[29] = biological target: DYRK4 (human) (UniProt Q9NR20)
Sequence of DYRK4 (human) (Q9NR20 whole entry, looked up): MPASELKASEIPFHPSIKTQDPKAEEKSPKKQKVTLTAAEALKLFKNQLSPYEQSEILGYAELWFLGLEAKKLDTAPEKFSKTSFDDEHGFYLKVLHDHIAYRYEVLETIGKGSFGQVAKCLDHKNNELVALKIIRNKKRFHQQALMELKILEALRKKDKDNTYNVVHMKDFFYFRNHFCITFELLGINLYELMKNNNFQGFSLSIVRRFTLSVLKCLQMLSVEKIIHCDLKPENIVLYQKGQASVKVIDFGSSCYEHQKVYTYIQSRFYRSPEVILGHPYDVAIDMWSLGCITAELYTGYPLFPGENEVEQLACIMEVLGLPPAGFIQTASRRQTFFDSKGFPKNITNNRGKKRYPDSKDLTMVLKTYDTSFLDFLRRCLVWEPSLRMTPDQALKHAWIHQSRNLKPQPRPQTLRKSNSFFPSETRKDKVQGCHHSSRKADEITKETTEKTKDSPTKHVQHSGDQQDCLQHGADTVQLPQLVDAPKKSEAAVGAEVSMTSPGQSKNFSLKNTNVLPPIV

[30] = biological target: EPHA1 (human) (UniProt P21709)
[31] = biological target: CDK6 CCND3 (human) (UniProt P30281+Q00534)
[32] = biological target: WEE1 (human) (UniProt P30291)
[33] = biological target: DYRK1B (human) (UniProt Q9Y463)
[34] = biological target: ACVRL1 (human) (UniProt P37023)
Sequence of ACVRL1 (human) (P37023 whole entry, looked up): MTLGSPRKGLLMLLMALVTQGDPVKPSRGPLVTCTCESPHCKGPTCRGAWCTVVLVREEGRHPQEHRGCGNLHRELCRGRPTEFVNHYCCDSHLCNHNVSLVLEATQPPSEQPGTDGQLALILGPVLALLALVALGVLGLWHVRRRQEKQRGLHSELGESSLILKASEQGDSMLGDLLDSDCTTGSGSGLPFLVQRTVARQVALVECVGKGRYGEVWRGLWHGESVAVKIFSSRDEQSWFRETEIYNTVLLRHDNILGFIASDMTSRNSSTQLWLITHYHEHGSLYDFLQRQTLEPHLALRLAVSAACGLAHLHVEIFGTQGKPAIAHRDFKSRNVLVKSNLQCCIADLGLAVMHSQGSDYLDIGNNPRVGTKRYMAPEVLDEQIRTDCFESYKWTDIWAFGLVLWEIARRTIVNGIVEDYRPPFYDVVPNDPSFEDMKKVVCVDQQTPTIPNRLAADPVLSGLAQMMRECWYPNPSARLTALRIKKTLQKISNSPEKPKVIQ

[35] = biological target: CSK (human) (UniProt P41240)
Sequence of CSK (human) (P41240 whole entry, looked up): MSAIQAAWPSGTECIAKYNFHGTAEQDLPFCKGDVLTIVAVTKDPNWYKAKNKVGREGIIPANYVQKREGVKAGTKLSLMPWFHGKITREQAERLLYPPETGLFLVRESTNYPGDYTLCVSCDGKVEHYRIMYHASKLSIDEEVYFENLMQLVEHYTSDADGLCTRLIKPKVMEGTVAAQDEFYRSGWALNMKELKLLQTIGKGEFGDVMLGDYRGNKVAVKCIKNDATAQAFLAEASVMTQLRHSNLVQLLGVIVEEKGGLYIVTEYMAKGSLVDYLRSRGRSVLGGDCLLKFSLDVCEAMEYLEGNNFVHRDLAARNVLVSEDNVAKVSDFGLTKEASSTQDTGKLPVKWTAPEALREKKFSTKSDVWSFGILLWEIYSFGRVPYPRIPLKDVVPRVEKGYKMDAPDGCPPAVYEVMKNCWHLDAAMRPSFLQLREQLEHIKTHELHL

[36] = biological target: CDK9 CCNK (human) (UniProt O75909+P50750)
[37] = biological target: PTK2B (human) (UniProt Q14289)
[38] = biological target: PRKCB1 (human) (UniProt P05771)
[39] = biological target: ROS1 (human) (UniProt P08922)
[40] = biological target: HIPK4 (human) (UniProt Q8NE63)
[41] = biological target: GSK3A (human) (UniProt P49840)
[42] = biological target: MELK (human) (UniProt Q14680)

Sequence of JAK1 JH1 catalytic (human) (P23458 whole entry, looked up): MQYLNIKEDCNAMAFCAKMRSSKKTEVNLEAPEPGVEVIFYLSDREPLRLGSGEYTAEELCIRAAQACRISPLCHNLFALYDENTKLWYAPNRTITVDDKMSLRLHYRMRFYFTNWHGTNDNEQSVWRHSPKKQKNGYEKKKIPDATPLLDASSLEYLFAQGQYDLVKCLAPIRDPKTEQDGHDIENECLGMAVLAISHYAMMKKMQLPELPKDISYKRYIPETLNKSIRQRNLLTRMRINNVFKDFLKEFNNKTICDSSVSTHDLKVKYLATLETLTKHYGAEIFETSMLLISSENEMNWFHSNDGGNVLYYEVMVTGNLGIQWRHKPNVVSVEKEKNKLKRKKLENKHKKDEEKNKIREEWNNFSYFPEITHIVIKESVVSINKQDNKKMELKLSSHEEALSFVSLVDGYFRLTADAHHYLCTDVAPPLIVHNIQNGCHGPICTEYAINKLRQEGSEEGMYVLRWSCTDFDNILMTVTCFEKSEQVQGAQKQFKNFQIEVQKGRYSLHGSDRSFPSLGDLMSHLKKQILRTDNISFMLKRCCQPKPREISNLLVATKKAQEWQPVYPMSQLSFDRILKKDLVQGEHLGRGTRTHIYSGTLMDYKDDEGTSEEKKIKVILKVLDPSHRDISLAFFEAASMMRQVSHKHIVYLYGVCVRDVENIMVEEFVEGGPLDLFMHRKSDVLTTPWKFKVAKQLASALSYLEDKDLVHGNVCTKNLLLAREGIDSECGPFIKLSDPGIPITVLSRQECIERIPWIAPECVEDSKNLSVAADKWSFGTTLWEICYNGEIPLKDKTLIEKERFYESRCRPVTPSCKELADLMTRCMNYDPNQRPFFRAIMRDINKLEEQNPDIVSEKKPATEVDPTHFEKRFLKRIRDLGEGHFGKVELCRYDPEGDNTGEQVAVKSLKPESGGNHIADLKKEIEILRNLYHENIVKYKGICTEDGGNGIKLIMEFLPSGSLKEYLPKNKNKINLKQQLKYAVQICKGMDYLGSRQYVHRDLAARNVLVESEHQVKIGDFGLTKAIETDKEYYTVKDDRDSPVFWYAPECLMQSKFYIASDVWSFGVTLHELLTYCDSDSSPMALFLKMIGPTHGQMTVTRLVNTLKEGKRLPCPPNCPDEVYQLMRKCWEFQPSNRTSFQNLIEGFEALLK

O=C(c1ccccc1)c1ccc(N2CCOCC2)cc1O showed a residual activity [1] of 97.4%, a residual activity [2] of 101% and a residual activity [3] of 108%. It also gave a residual activity [4] of 96.8%, a residual activity [5] of 96.8% and a residual activity [6] of 111%. The residual activity [7] was 96.2%, the residual activity [8] was 101% and the residual activity [9] was 115%. It also gave a residual activity [10] of 97.9%, a residual activity [11] of 103% and a residual activity [12] of 102%. The residual activity [13] was 70%, the residual activity [14] was 98.8% and the residual activity [15] was 98.2%. It also gave a residual activity [16] of 94.8%, a residual activity [17] of 107% and a residual activity [18] of 101%. It also gave a residual activity [19] of 96.8%, a residual activity [20] of 102% and a residual activity [21] of 119%. For the same compound, the residual activity [22] was 102%, the residual activity [23] was 90.2% and the residual activity [24] was 101%. The residual activity [25] was 96.7%, the residual activity [26] was 102% and the residual activity [27] was 100%. It also gave a residual activity [28] of 94.3%, a residual activity [29] of 94.9% and a residual activity [30] of 89.1%. It also gave a residual activity [31] of 97.7%, a residual activity [32] of 94.2% and a residual activity [33] of 105%. For the same compound, the residual activity [34] was 105%, the residual activity [35] was 101% and the residual activity [36] was 97.8%. The residual activity [37] was 102%, the residual activity [38] was 90.1% and the residual activity [39] was 96%. For the same compound, the residual activity [40] was 99.5%, the residual activity [41] was 102% and the residual activity [42] was 103%.
Cn1cc(/C=C2\C(=O)Nc3ccc(S(N)(=O)=O)cc32)c2ccccc21 gave a residual activity [1] of 70.1%, a residual activity [2] of 89.1% and a residual activity [3] of 83.9%. It also gave a residual activity [4] of 66%, a residual activity [5] of 81.8% and a residual activity [6] of 34.4%. For the same compound, the residual activity [7] was 68.2%, the residual activity [8] was 92.2% and the residual activity [9] was 68.5%. For the same compound, the residual activity [10] was 57.5%, the residual activity [11] was 93.2% and the residual activity [12] was 9.26%. The residual activity [13] was 102%, the residual activity [14] was 109% and the residual activity [15] was 80.2%. For the same compound, the residual activity [16] was 79.3%, the residual activity [17] was 17% and the residual activity [18] was 94.7%. The residual activity [19] was 74.3%, the residual activity [20] was 80.9% and the residual activity [21] was 157%. For the same compound, the residual activity [22] was 101%, the residual activity [23] was 81.4% and the residual activity [24] was 109%. It also gave a residual activity [25] of 98.2%, a residual activity [26] of 37.1% and a residual activity [27] of 83.5%. It also gave a residual activity [28] of 97.8%, a residual activity [29] of 73.7% and a residual activity [30] of 101%. The residual activity [31] was 81.4%, the residual activity [32] was 82.3% and the residual activity [33] was 104%. The residual activity [34] was 99.1%, the residual activity [35] was 89.3% and the residual activity [36] was 86.8%. The residual activity [37] was 43.1%, the residual activity [38] was 114% and the residual activity [39] was 82.2%. For the same compound, the residual activity [40] was 86.2%, the residual activity [41] was 100% and the residual activity [42] was 63%.
With O=c1c(-c2ccc(F)cc2)c(-c2ccncc2)[nH]n1-c1ccc(Cl)cc1 the residual activity [1] was 81.3%, the residual activity [2] was 85.4% and the residual activity [3] was 103%. The residual activity [5] was 96.4%, the residual activity [6] was 83% and the residual activity [7] was 94.9%. The residual activity [8] was 89.8%, the residual activity [9] was 78.7% and the residual activity [10] was 105%. For the same compound, the residual activity [11] was 99.9%, the residual activity [12] was 91.8% and the residual activity [13] was 89%. It also gave a residual activity [14] of 102%, a residual activity [15] of 57.5% and a residual activity [16] of 128%. For the same compound, the residual activity [17] was 76.2%, the residual activity [18] was 82.5% and the residual activity [19] was 90.6%. The residual activity [20] was 93.5%, the residual activity [21] was 112% and the residual activity [22] was 98.5%. For the same compound, the residual activity [23] was 88.7%, the residual activity [24] was 101% and the residual activity [25] was 77.3%. It also gave a residual activity [26] of 100%, a residual activity [27] of 111% and a residual activity [28] of 101%. For the same compound, the residual activity [29] was 81.5%, the residual activity [30] was 93.1% and the residual activity [31] was 93.7%. For the same compound, the residual activity [32] was 81.6%, the residual activity [33] was 92.2% and the residual activity [34] was 88.1%. For the same compound, the residual activity [35] was 86.1%, the residual activity [36] was 93.4% and the residual activity [37] was 91.7%. The residual activity [38] was 84.7%, the residual activity [39] was 97.6% and the residual activity [40] was 94.6%. It also gave a residual activity [41] of 93.3% and a residual activity [42] of 86.5%.
Nc1ncnc2c1cnn2-c1ccccc1 gave a residual activity [1] of 88.5%, a residual activity [2] of 98.8% and a residual activity [3] of 98.1%. For the same compound, the residual activity [5] was 125%, the residual activity [6] was 86.8% and the residual activity [7] was 89.5%. For the same compound, the residual activity [8] was 96.8%, the residual activity [9] was 62.4% and the residual activity [10] was 102%. It also gave a residual activity [11] of 101%, a residual activity [12] of 92.5% and a residual activity [13] of 94.8%. For the same compound, the residual activity [14] was 93.4%, the residual activity [15] was 92% and the residual activity [16] was 107%. For the same compound, the residual activity [17] was 84.1%, the residual activity [18] was 96.9% and the residual activity [19] was 98.8%. For the same compound, the residual activity [20] was 89%, the residual activity [21] was 103% and the residual activity [22] was 98.6%. For the same compound, the residual activity [23] was 96.1%, the residual activity [24] was 92.6% and the residual activity [25] was 85.4%. For the same compound, the residual activity [26] was 98.2%, the residual activity [27] was 93.2% and the residual activity [28] was 99.6%. The residual activity [29] was 98.4%, the residual activity [30] was 92.4% and the residual activity [31] was 92.2%. For the same compound, the residual activity [32] was 90%, the residual activity [33] was 93% and the residual activity [34] was 109%. For the same compound, the residual activity [35] was 86.8%, the residual activity [36] was 92.9% and the residual activity [37] was 108%. The residual activity [38] was 95.2%, the residual activity [39] was 94.2% and the residual activity [40] was 86.3%. The residual activity [41] was 90.3% and the residual activity [42] was 92.6%.
